molecular target: Purified bacterial β-glucuronidases (Purified GUS) (UniProt P05804); assay type: biochemical; details: read-out: Purified GUS Orignial IC50
Sequence (P05804 whole entry): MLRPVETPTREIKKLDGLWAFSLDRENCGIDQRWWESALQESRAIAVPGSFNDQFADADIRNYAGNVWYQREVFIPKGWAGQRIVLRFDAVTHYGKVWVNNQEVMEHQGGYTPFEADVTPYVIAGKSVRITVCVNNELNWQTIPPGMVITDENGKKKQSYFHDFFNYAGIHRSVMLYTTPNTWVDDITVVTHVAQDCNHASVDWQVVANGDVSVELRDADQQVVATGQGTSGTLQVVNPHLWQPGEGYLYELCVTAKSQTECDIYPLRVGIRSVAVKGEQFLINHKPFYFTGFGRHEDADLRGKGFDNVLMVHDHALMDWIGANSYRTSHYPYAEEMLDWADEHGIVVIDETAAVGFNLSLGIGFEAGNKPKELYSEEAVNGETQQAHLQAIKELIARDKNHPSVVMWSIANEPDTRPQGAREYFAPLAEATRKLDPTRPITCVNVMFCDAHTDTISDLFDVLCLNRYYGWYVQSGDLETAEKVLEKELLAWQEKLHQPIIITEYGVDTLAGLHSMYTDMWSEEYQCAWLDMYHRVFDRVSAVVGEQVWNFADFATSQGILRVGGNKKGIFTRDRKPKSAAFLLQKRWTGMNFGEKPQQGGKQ

SMILES | IC50
Cc1cc(C)c2[nH]c(=O)c(CN(CCO)C(=O)Cc3ccccc3Br)cc2c1 [Ex. 4, 2-(2-bromophenyl)-N-[(6,8-dimethyl-2-oxo-1H-quinolin-3-yl)methyl]-N-(2-hydroxyethyl)acetamide] | 920 nM
Cc1cc(C)c2[nH]c(=O)c(CN(CCO)C(=O)Cc3ccccc3Cl)cc2c1 [Ex. 8, 2-(2-chlorophenyl)-N-[(6,8-dimethyl-2-oxo-1H-quinolin-3-yl)methyl]-N-(2-hydroxyethyl)acetamide] | 570 nM
COc1ccc(Br)c(CC(=O)N(CCO)Cc2cc3cc(C)cc(C)c3[nH]c2=O)c1 [Ex. 12, 2-(2-bromo-5-methoxy-phenyl)-N-[(6,8-dimethyl-2-oxo-1H-quinolin-3-yl)methyl]-N-(2-hydroxyethyl)acetamide] | 580 nM
